Test system: PSD-95 - α-actinin interaction
Conditions: acute forebrain slices, 100 μM NMDA for 5 min; Figure 7

With `CN[C@H](CC(=O)O)C(=O)O` [NMDA] the “co-IP of CaM with PSD-95 after NMDA” value was “strongly increased” and the “co-IP of α-actinin with PSD-95 after NMDA” value was “nearly abolished”.
